Measured values as given in patent publication US20250145608A1, “KRAS DEGRADING COMPOUNDS COMPRISING ANNULATED 2-AMINO-3-CYANO THIOPHENES” (Boehringer Ingelheim Int'l GmbH Corp., priority 2021, published 2025).
pIC50: −log10 of the molar value.

Tests used:
Type in all cases: cell-based
SK—CO-1 cells = experiment: SK-CO-1 CTG proliferation assay (120 h) (CRC, G12V); conditions: Homo sapiens, SK-CO-1 proliferation
Experimental: SK—CO-1 CTG Proliferation Assay (120 h) (CRC, G12V)
(§1) SK—CO-1 cells (ATCC HTB-39) are dispensed into 384-well plates, flat and clear bottom (Greiner, PNr. 781091) at a density of 500 cells per well in 60 μL EMEM (Sigma M5650)+10% Fetal Calf Serum (HyClone, PNr.: SH30084.03) and incubated at 37° C. in a CO2 incubator overnight. The next day, compounds (10 mM stock in DMSO) are added with the ECHO acoustic liquid handler system (Beckman Coulter), including DMSO controls. Plates are incubated for 120 h, and cell viability is measured using CellTiter-Glo luminescent cell viability reagent (Promega product code G7570). Viability (stated as percent of control) is defined as relative luminescence units RLU of each well divided by the RLU of cells in DMSO controls. IC50 values are determined from viability measurements by non-linear regression using a four-parameter model.

SAS cells = experiment: SAS CTG proliferation assay (120 h) (HNSCC, wt amplified)
Experimental: SAS CTG Proliferation Assay (120 h) (HNSCC, Wt Amplified)
as §1, with “SAS” for “SK—CO-1”, “(JCRB0260)” for “(ATCC HTB-39)”, “300” for “500”, “DMEM:F12 (Gibco 31330-038)+10%” for “EMEM (Sigma M5650)+10%”

KRAS4B G12D = molecular target: T1, KRAS4B G12D (Homo sapiens, UniProt P01116, G12D); experiment: HiBit KRAS4B mutant spectrum degradation assay, KRAS4B G12D in GP5d cells (18 h); conditions: KRAS mutation G12D
T1 construct: HiBit; expressed in transfected cells; host or cells: GP5d cells (ECACC 95090715), stably transduced with lentivirus, CMV promoter
Excerpt: (§2) The therapeutically relevant mutant KRAS constructs (WT, G12C, G12D, G12V, G13D) were obtained by site directed mutagenesis using a KRAS4B WT cDNA construct as a template. GP5d cells (ECACC Cat. No. 95090715) were transduced with lentiviral vectors expressing mutant KRAS4B cDNA under control of a CMV promoter. Stably transduced cells were selected using a neomycin selectable marker encoded on the construct.
(§3) To assess PROTAC-mediated degradation of various KRAS mutants, GP5d cells stably transduced with KRAS4B constructs as described above were seeded at 25000 cells per well in 100 μL Dulbecco's Modified Eagle medium (Sigma cat. no. D6429) supplemented with 10% fetal calf serum into white bottom opaque 96 well plates (Perkin Elmer cat no. 5680). Plates were incubated at 37° C., 5% CO2 in a humidified incubator over night to allow the cells to adhere. […] Plates were further incubated at 37° C. for 18 hours. Following incubation, 100 μL per well Promega Nano-Glo HiBit lytic detection reagent mix (Promega Nano-Glo HiBit Lytic Detection System #N3050), prepared according to the manufacturer's instructions in the kit, were added. To allow for adequate cell lysis, plates were incubated on an orbital shaker for 15 min and further incubated 30 min at room temperature. Upon completion of cell lysis, luminescence was measured using an Envision plate reader using the Ultrasensitive Luminescence Protocol for 96 well plates. Luminescence levels were normalized by the values obtained with DMSO-treated samples and plotted as percent of DMSO control. DC50 values were computed using a four parametric logistic model and are reported in nM in Table 65 for representative example (Ex.) compounds of the invention. Dmax values represent the maximal extent of degradation observed and is stated as percent of control (% Ctrl.) treatments in Table 66 for representative example (Ex.) compounds of the invention.

KRAS4B G13D = molecular target: T2, KRAS4B G13D (Homo sapiens, UniProt P01116, G13D); experiment: HiBit KRAS4B mutant spectrum degradation assay, KRAS4B G13D in GP5d cells (18 h); conditions: KRAS mutation G13D
T2 construct: HiBit; expressed in transfected cells; host or cells: GP5d cells (ECACC 95090715), stably transduced with lentivirus, CMV promoter
Excerpt: as §2, §3

KRAS4B G12V = molecular target: T3, KRAS4B G12V (Homo sapiens, UniProt P01116, G12V); experiment: HiBit KRAS4B mutant spectrum degradation assay, KRAS4B G12V in GP5d cells (18 h); conditions: KRAS mutation G12V
T3 construct: HiBit; expressed in transfected cells; host or cells: GP5d cells (ECACC 95090715), stably transduced with lentivirus, CMV promoter
Excerpt: as §2, §3

KRAS4B G12C = molecular target: T4, KRAS4B G12C (Homo sapiens, UniProt P01116, G12C); experiment: HiBit KRAS4B mutant spectrum degradation assay, KRAS4B G12C in GP5d cells (18 h); conditions: KRAS mutation G12C
T4 construct: HiBit; expressed in transfected cells; host or cells: GP5d cells (ECACC 95090715), stably transduced with lentivirus, CMV promoter
Excerpt: as §2, §3

GP2D cells = experiment: GP2D proliferation assay (120 h) (colorectal cancer, G12D)
Experimental: GP2D Proliferation Assay (120 h) (Colorectal Cancer, G12D)
GP2D cells (ATCC No. CRL-5807) are dispensed into white 384-well plates, flat and white bottom (Perkin Elmer, 6007680) at a density of 500 cells per well in 40 μl DMEM (Sigma, D6429)+1× GlutaMAX (Gibco, 35050038)+10% FCS (fetal calf serum). […] Compounds (10 mM stock in DMSO) are added at logarithmic dose series using the HP Digital Dispenser D300 (Tecan), including DMSO controls and normalizing for added DMSO. For the TO time point measurement, untreated cells are analyzed at the time of compound addition. Plates are incubated for 120 h, and cell viability is measured using CellTiter-Glo luminescent cell viability reagent (Promega product code G7570). Viability (stated as percent of control) is defined as relative luminescence units RLU of each well divided by the RLU of cells in DMSO controls. IC50 values are determined from viability measurements by non-linear regression using a four parameter model.

T3 sequence (P01116 1-188 isoform P01116-2 G12V): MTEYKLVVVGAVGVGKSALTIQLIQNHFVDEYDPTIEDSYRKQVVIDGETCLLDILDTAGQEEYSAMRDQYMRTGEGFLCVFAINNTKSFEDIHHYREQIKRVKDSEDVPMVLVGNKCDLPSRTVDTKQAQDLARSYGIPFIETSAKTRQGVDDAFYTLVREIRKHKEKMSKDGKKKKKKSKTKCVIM
T2 sequence (P01116 1-188 isoform P01116-2 G13D): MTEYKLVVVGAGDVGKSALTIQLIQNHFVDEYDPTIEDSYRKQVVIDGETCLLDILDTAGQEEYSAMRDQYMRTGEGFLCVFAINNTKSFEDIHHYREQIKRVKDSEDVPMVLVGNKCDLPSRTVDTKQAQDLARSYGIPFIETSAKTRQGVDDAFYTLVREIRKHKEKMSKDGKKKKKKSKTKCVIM
T1 sequence (P01116 1-188 isoform P01116-2 G12D): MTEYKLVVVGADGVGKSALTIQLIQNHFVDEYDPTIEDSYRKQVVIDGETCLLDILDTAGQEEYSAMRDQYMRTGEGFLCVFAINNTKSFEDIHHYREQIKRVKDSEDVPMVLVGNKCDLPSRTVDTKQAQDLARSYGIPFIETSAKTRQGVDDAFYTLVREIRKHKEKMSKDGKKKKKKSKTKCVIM
T4 sequence (P01116 1-188 isoform P01116-2 G12C): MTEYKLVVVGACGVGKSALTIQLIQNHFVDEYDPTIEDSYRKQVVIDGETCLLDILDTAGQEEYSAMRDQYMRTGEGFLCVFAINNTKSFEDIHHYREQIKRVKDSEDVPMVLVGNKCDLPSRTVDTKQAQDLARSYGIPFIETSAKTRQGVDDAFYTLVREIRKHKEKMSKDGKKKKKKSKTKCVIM

| SMILES | pIC50 (SK—CO-1 cells) | pIC50 (SAS cells) | DC50 (KRAS4B G12D) | Dmax at 18 h (KRAS4B G12D) | DC50 (KRAS4B G13D) | Dmax at 18 h (KRAS4B G13D) | DC50 (KRAS4B G12V) | Dmax at 18 h (KRAS4B G12V) | DC50 (KRAS4B G12C) | Dmax at 18 h (KRAS4B G12C) | pIC50 (GP2D cells) |
| --- | --- | --- | --- | --- | --- | --- | --- | --- | --- | --- | --- |
| Cc1ncsc1-c1ccc(CNC(=O)[C@@H]2C[C@@H](O)CN2C(=O)[C@H](c2cc(OCCCN3CCCN(c4nccc(-c5noc([C@@]6(C)CCCc7sc(N)c(C#N)c76)n5)n4)[C@@H](C)C3)no2)C(C)C)cc1 (single isomer, unassigned) [I-24] | 5.65 | 5.88 | – | – | – | – | – | – | – | – | – |
| Cc1ncsc1-c1ccc(CNC(=O)[C@@H]2C[C@@H](O)CN2C(=O)[C@@H](c2cc(OCCCN3CCCN(c4nccc(-c5noc([C@@]6(C)CCCc7sc(N)c(C#N)c76)n5)n4)[C@@H](C)C3)no2)C(C)C)cc1 (single isomer, unassigned) [I-25] | 7.24 | 7.75 | 1.3 nM | 96 % Ctrl. | 2.5 nM | 94 % Ctrl. | 3.8 nM | 90.5 % Ctrl. | 1.9 nM | 92.5 % Ctrl. | – |
| Cc1ncsc1-c1ccc(CNC(=O)[C@@H]2C[C@@H](O)CN2C(=O)[C@@H](c2cc(OCCCCN3CCCN(c4nccc(-c5noc([C@@]6(C)CCCc7sc(N)c(C#N)c76)n5)n4)[C@@H](C)C3)no2)C(C)C)cc1 (single isomer, unassigned) [I-27] | 7.29 | 7.02 | 1.1 nM | 95 % Ctrl. | 1.6 nM | 93 % Ctrl. | 2.7 nM | 86 % Ctrl. | 3.7 nM | 83 % Ctrl. | 8.29 |
| Cc1ncsc1-c1ccc([C@@H](NC(=O)[C@@H]2C[C@@H](O)CN2C(=O)[C@H](C(C)C)n2cc(OCCCCN3CCCN(c4nccc(-c5noc([C@@]6(C)CCCc7sc(N)c(C#N)c76)n5)n4)[C@@H](C)C3)nn2)[C@H](C)O)cc1 (single isomer, unassigned) [I-41] | 7.65 | 7.52 | 1.3 nM | 96.1 % Ctrl. | 0.8 nM | 89.7 % Ctrl. | 2.5 nM | 90.8 % Ctrl. | 1.2 nM | 96.2 % Ctrl. | 8.11 |
| Cc1ncsc1-c1ccc([C@@H](NC(=O)[C@@H]2C[C@@H](O)CN2C(=O)[C@H](C(C)C)n2cc(OCCCN3CCCN(c4nccc(-c5noc([C@@]6(C)CCCc7sc(N)c(C#N)c76)n5)n4)[C@@H](C)C3)nn2)[C@H](O)C(C)C)cc1 (single isomer, unassigned) [I-43] | 7.58 | 6.39 | 1.3 nM | 95.8 % Ctrl. | 1.1 nM | 90.4 % Ctrl. | 2.6 nM | 89.4 % Ctrl. | 1.1 nM | 95.6 % Ctrl. | 8.18 |
| Cc1ncsc1-c1ccc([C@@H](NC(=O)[C@@H]2C[C@@H](O)CN2C(=O)[C@H](C(C)C)n2cc(OCCCCN3CCCN(c4nccc(-c5noc([C@@]6(C)CCCc7sc(N)c(C#N)c76)n5)n4)[C@@H](C)C3)nn2)[C@H](O)C(C)C)cc1 (single isomer, unassigned) [I-45] | 7.48 | 5.74 | – | – | – | – | – | – | – | – | 8.03 |
| Cc1ncsc1-c1ccc(CNC(=O)[C@@H]2C[C@@H](O)CN2C(=O)C(c2cc(OCCCCN3CCCN(c4nccc(-c5cc([C@@]6(C)CCCc7sc(N)c(C#N)c76)on5)n4)[C@@H](C)C3)no2)C(C)C)cc1 (some centres unmarked) [I-4] | 6.68 | 6.20 | – | – | – | – | – | – | – | – | – |
| CC(C)C(C(=O)N1C[C@H](O)C[C@H]1C(=O)NCc1ccc(C#N)cc1)c1cc(OCCCCN2CCCN(c3nccc(-c4noc([C@@]5(C)CCCc6sc(N)c(C#N)c65)n4)n3)[C@@H](C)C2)no1 (some centres unmarked) [I-16] | 6.74 | 7.53 | – | – | – | – | – | – | – | – | 7.48 |
| Cc1ncsc1-c1ccc([C@H](C)NC(=O)[C@@H]2C[C@@H](O)CN2C(=O)C(C(C)C)n2cc(OCCCCN3CCCN(c4nccc(-c5noc([C@@]6(C)CCCc7sc(N)c(C#N)c76)n5)n4)[C@@H](C)C3)nn2)cc1 (some centres unmarked) [I-28] | 7.35 | 7.23 | – | – | – | – | – | – | – | – | 8.54 |
| Cc1ncsc1-c1ccc([C@H](CO)NC(=O)[C@@H]2C[C@@H](O)CN2C(=O)[C@H](C(C)C)n2cc(OCCCCN3CCCN(c4nccc(-c5noc([C@@]6(C)CCCc7sc(N)c(C#N)c76)n5)n4)[C@@H](C)C3)nn2)cc1 [I-29] | 7.61 | 6.26 | 1.5 nM | 96.0 % Ctrl. | 1.2 nM | 89.7 % Ctrl. | 3.5 nM | 90.5 % Ctrl. | 1.4 nM | 95.6 % Ctrl. | 8.07 |
| Cc1ncsc1-c1ccc([C@H](CO)NC(=O)[C@@H]2C[C@@H](O)CN2C(=O)[C@H](C(C)C)n2cc(OCCCC(C)N3CCCN(c4nccc(-c5noc([C@@]6(C)CCCc7sc(N)c(C#N)c76)n5)n4)[C@@H](C)C3)nn2)cc1 (some centres unmarked) [I-30] | 7.53 | 7.82 | 0.8 nM | 96.1 % Ctrl. | 1 nM | 91.9 % Ctrl. | 2.2 nM | 91.0 % Ctrl. | 1.2 nM | 95.6 % Ctrl. | 8.19 |
| Cc1ncsc1-c1ccc([C@H](CO)NC(=O)[C@@H]2C[C@@H](O)CN2C(=O)[C@H](C(C)C)n2cc(OC(C)CCCN3CCCN(c4nccc(-c5noc([C@@]6(C)CCCc7sc(N)c(C#N)c76)n5)n4)[C@@H](C)C3)nn2)cc1 (some centres unmarked) [I-31] | 6.88 | 7.05 | 3.3 nM | 95.8 % Ctrl. | 2.7 nM | 89.7 % Ctrl. | 8.7 nM | 89.2 % Ctrl. | 3.6 nM | 94.7 % Ctrl. | 7.58 |
| Cc1ncsc1-c1ccc([C@H](CCO)NC(=O)[C@@H]2C[C@@H](O)CN2C(=O)[C@H](C(C)C)n2cc(OCCCCN3CCCN(c4nccc(-c5noc([C@@]6(C)CCCc7sc(N)c(C#N)c76)n5)n4)[C@@H](C)C3)nn2)cc1 [I-38] | 6.93 | 7.24 | – | – | – | – | – | – | – | – | 7.90 |
